For the test, the target named is T1, Coproheme decarboxylase (Staphylococcus aureus, UniProt Q2YS77).
T1 sequence (Q2YS77 whole entry): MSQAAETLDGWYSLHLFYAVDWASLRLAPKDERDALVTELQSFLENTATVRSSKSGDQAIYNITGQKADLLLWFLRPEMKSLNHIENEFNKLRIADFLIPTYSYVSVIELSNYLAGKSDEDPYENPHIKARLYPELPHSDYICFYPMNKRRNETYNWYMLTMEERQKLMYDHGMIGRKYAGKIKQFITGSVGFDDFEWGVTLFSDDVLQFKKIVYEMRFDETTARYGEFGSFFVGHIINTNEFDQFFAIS
As to the kind of experiment: Fluorescence Titration Assay. Particulars: pH 6.8. The procedure: Titrations using fluorescence spectroscopy were carried out on a Jobin Yvon Horiba FluoroMax-3 fluorimeter in scanning mode. Apo-HemQ (5 μM) was diluted in 0.1 M potassium phosphate buffer, pH 6.8, and titrated with stocks of heme (1 mM in0.1 M NaOH) and protoporphyrin IX (1 mM in DMSO) each diluted to 500 μM at 25 °C.

Regarding `C=Cc1c(C)c2cc3[nH]c(cc4nc(cc5nc(cc1[nH]2)C(C)=C5CCC(=O)O)C(CCC(=O)O)=C4C)c(C)c3C=C`, the Kd (in general, the concentration at which binding is half-saturated) worked out at 2210 nM.

The record behind these values is BindingDB's records for doi:10.1074/jbc.M112.442335 (University of Notre Dame, 2013).
